From patent US12612412B2, “Antiviral heterocyclic compounds” (Enanta Pharmaceuticals, Inc., priority 2021, dated 2026) come the findings set out here.

Assay [1] has as its system genotype A, "Long" strain RSV. The experiment in a line: RSV-A assay (CPE protection in Hep-2 cells, ATPlite readout). Format: cell-based, Human respiratory syncytial virus (HRSV). As to conditions: human respiratory syncytial virus, MOI 0.1, CPE protection. Put shortly:
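Hep-2 cells (8,000/well) infected with RSV Long strain at MOI 0.1 in the presence of 2-fold compound dilutions in duplicate. After 5 days, cell viability measured by ATPlite luminescence, normalized between virus-only and uninfected cell controls; EC50 reported.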

Assay [2] has as its system HMPV clinical isolate TN/1501/A1. The experiment in a line: HMPV antiviral assay Method-B (clinical isolate TN/1501/A1 in LLC-MK2 cells, ATP-Lite readout). The note with it: human metapneumovirus, LLC-MK2, 144 h, hMPV WT1501 (clinical isolate TN/1501/A1), 6 days. Type of assay: cell-based, Human metapneumovirus (HMPV). Put shortly: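 EC50 derived by four-parameter logistic fit of percent cell health, measured by ATP-Lite luminescence and normalised to virus-only and uninfected-cell controls. Compounds run in duplicate from 10 μM top, 3-fold, 10 points. Infection: LLC-MK2 cells, MOI 0.014, 2 μg/mL final TPCK-trypsin, serum-free, 6 days at 37° C.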

Where [3] appears, read: RSV-A Long strain, read-out: Human RSV-A (“Long”) EC50.
Setting [4] is: genotype A “Long” strain RSV, read-out: Human RSV-A (“Long”).

Read-outs that look alike come from different tables or passages of the source. Bounds are passed on as bounds.

For the molecule `C[C@]1(C(N)=O)COc2c1cc([C@@](O)(CNC(=O)c1cc(Cl)c3nn(C4CC4)cc3c1)C1CC1)nc2-c1cccc(F)c1Cl` [Example 1123], the EC50 in assay [1] (setting [3]) is less than 200 nM; in assay [2], less than 500 nM.
`COc1cc(C(=O)NC[C@](O)(c2cc3c(c(-c4ccc(F)c(Br)c4F)n2)OC[C@]3(C)C(N)=O)C2CC2)cc2cn(C3CC3)nc12` [Example 799]: the EC50 in assay [1] (setting [4]) is less than 200 nM; in assay [2] it was less than 500 nM.
As for `COc1cc(C(=O)NC[C@](O)(c2cc3c(c(-c4c(F)ccc(Cl)c4F)n2)OC[C@]3(C)C(N)=O)C2CC2)cc2cc(Br)c(C)nc12` [Example 1169], the EC50 in assay [1] (setting [3]) is less than 200 nM; in assay [2], less than 500 nM.
Regarding `COc1cc(C(=O)NC[C@](O)(c2cc3c(c(-c4ccccc4F)n2)OC[C@]3(C)C(N)=O)C(F)(F)F)cc2cn(C3CC3)nc12` [Example 911], the results for the EC50 in assay [1] (setting [3]) and in assay [2] were less than 200 nM and less than 500 nM, respectively.
For `Cc1cnc2c(Cl)cc(C(=O)NC[C@](O)(c3cc4c(c(-c5ccc(F)c(F)c5Cl)n3)OC[C@]4(C)C(N)=O)C(F)(F)F)cc2c1` [Example 779], the EC50 in assay [1] (setting [4]) is less than 200 nM; in assay [2], less than 500 nM.
In the case of `COc1cc(C(=O)NC[C@](O)(c2cc3c(c(-c4ccc(F)c(F)c4F)n2)OC[C@]3(C)C(N)=O)C2(F)CC2)cc2cn(C3(F)CC3)nc12` [Example 743], the EC50 is less than 200 nM in assay [1] (setting [4]) and less than 500 nM in assay [2].
On to `COc1cc(C(=O)NC[C@](O)(c2cc3c(c(-c4ccc(Cl)c(F)c4F)n2)OC[C@]3(C)C(N)=O)C2CC2)cc2cc(Cl)c(C)nc12` [Example 687], for which the results for the EC50 in assay [1] (setting [4]) and in assay [2] were less than 200 nM and less than 500 nM, respectively.
On to `COc1cc(C(=O)NC[C@](O)(c2cc3c(c(-c4cccc(F)c4Cl)n2)OC[C@]3(C)C(N)=O)C2CC2)cc2cn(C3CC3)nc12` [Example 1122], for which the EC50 was less than 200 nM in assay [1] (setting [3]) and less than 500 nM in assay [2].
In the case of `C[C@]1(C(N)=O)COc2c1cc([C@@](O)(CNC(=O)c1cc(OC3CC3)n3nc(C4CC4)cc3c1)C1CC1)nc2-c1ccc(F)c(Cl)c1` [Example 491], the EC50 in assay [1] (setting [4]) is less than 200 nM; in assay [2], less than 500 nM.
For `COc1cc(C(=O)NC[C@](O)(c2cc3c(c(-c4csc5c(F)cccc45)n2)OC[C@]3(C)C(N)=O)C(F)(F)F)cc2cc(Cl)c(C)nc12` [Example 596], the EC50 in assay [1] (setting [4]) was less than 200 nM; in assay [2], less than 500 nM.
Taken in the same sequence, the figures for `COc1cc(C(=O)NC[C@](O)(c2cc3c(c(-c4ccc(F)c(F)c4Cl)n2)OC[C@]3(C)C(N)=O)C(F)(F)F)cc2cn(C3(F)CC3)nc12` [Example 775] were less than 200 nM and less than 500 nM.
`C[C@]1(C(N)=O)COc2c1cc([C@@](O)(CNC(=O)c1cc(OC3CC3)n3nc(C4CC4)cc3c1)C1CC1)nc2-c1ccc2c(c1)OC(F)(F)O2` [Example 822]: the EC50 in assay [1] (setting [4]) is less than 200 nM; in assay [2], less than 500 nM.
Regarding `COc1cc(C(=O)NC[C@](O)(c2cc3c(c(-c4ccc(Cl)cc4F)n2)OC[C@]3(C)C(N)=O)C2CC2)cc2cn(C3(F)CC3)nc12` [Example 840], the EC50 in assay [1] (setting [3]) was less than 200 nM; in assay [2] it was less than 500 nM.
With `COc1cc(C(=O)NC[C@](O)(c2cc3c(c(C4=CCC(F)(F)CC4)n2)OC[C@]3(C)C(N)=O)C(F)(F)F)cc2cn(C3CC3)nc12` [Example 1228], the EC50 in assay [1] (setting [3]) is less than 200 nM; in assay [2], more than 500 nM.
Turning to `Cc1cnc2c(OC(F)F)cc(C(=O)NC[C@](O)(c3cc4c(c(-c5ccc6c(c5)OC(F)(F)O6)n3)OC[C@]4(C)C(N)=O)C3CC3)cc2c1` [Example 538], the EC50 in assay [1] (setting [4]) was less than 200 nM; in assay [2] it was less than 500 nM.
Take `C[C@]1(C(N)=O)COc2c1cc([C@@](O)(CNC(=O)c1cc(OC3CC3)c3nc(C4CC4)cn3c1)C1CC1)nc2-c1ccc(F)c(Cl)c1F` [Example 560]: the EC50 in assay [1] (setting [4]) was less than 200 nM; in assay [2], less than 500 nM.
In the case of `COc1cc(C(=O)NC[C@](O)(c2nc(-c3ccc4c(c3)OC(F)(F)O4)c3c(c2F)[C@@](C)(C(N)=O)CO3)C2CC2)cc2cc(Cl)c(C)nc12` [Example 861], the EC50 in assay [1] (setting [3]) was less than 200 nM; in assay [2], less than 500 nM.
